# ChEMBL document CHEMBL5500405, “Design and Synthesis of Clinical Candidate PF-06852231 (CVL-231): A Brain Penetrant, Selective, Positive Allosteric Modulator of the M4 Muscarinic Acetylcholine Receptor” (J Med Chem, 2024)
# Legend:
# [1] = Lipophilicity, logD of compound by shake flask method; format: physicochemical; conditions: octanol/water
# [2] = Stability of compound at pH 1 assessed as half-life by 1H NMR assay; format: physicochemical; conditions: buffer
# [3] = Unbound plasma concentration in mouse at […], sc; format: ADME, organism-based; conditions: in vivo, dose 3.2 mg/kg
# [4] = Unbound plasma concentration in mouse at 10 mg/kg, sc; format: ADME, organism-based; conditions: in vivo
# [5] = Unbound brain concentration in mouse at 10 mg/kg, sc; format: ADME, organism-based; conditions: in vivo
# [6] = Unbound brain concentration in mouse at […], sc; format: ADME, organism-based; conditions: in vivo, dose 3.2 mg/kg
# [7] = Unbound brain concentration in mouse at 32 mg/kg, sc; format: ADME, organism-based; conditions: in vivo
# [8] = Unbound plasma concentration in mouse at 1 mg/kg, sc; format: ADME, organism-based; conditions: in vivo
# [9] = Unbound brain concentration in mouse at 1 mg/kg, sc; format: ADME, organism-based; conditions: in vivo
# [10] = Unbound plasma concentration in mouse at 32 mg/kg, sc; format: ADME, organism-based; conditions: in vivo
structure (smiles),measurement,setting,value
Cc1cc(C)c2c(n1)CN(C(=O)CC1CC1)C2,logD,[1],1.84
Cc1cc(C)c2c(n1)CN(C(=O)CC1CN(c3ccccc3)C1)C2,half-life,[2],9 min
Cc1cc(C)c2c(n1)CN(C(=O)CC1CN(c3ccnc(C(F)(F)F)c3)C1)C2 [EMRACLIDINE],Cp(f),[3],47 nM
same,Cp(f),[4],219 nM
same,Drug uptake(free),[5],105 nM
same,Drug uptake(free),[6],22 nM
same,Drug uptake(free),[7],240 nM
same,Cp(f),[8],26 nM
same,Drug uptake(free),[9],13 nM
same,Cp(f),[10],480 nM
